Experimental data from patent US20250082611A1, “DOSING REGIMEN FOR AN NLRP3 INHIBITOR IN THE TREATMENT OF OSTEOARTHRITIS” (Novartis AG, priority 2021, published 2025).

Tested on: IL-1β production in PMA-differentiated THP-1 cells
Test: IL-1β production in PMA-differentiated THP-1 cells stimulated with gramicidin (hTHP-1 assay, 2% fetal bovine serum)
Format: cell-based
Conditions: Homo sapiens, hTHP-1 assay containing 2% fetal bovine serum
Experimental: THP-1 cells were purchased from the American Type Culture Collection and sub-cultured according to instructions from the supplier. Cells were cultured in complete RPMI 1640 (containing 10% heat inactivated FBS, penicillin (100 units/ml) and streptomycin (100 μg/ml)), and maintained in log phase prior to experimental setup. Prior to the experiment, compounds were dissolved in dimethyl sulfoxide (DMSO) to generate a 30 mM stock. The compound stock was first pre-diluted in DMSO to 3, 0.34, 0.042 and 0.0083 mM intermediate concentrations and subsequently spotted using Echo550 liquid handler into an empty 384-well assay plate to achieve desired final concentration (e.g. 100, 33, 11, 3.7, 1.2, 0.41, 0.14, 0.046, 0.015, 0.0051, 0.0017 μM). DMSO was backfilled in the plate to achieve a final DMSO assay concentration of 0.37%. The plate was then sealed and stored at room temperature until required.
THP-1 cells were treated with PMA (Phorbol 12-myristate 13-acetate) (20 ng/ml) for 16-18 hours. On the day of the experiment the media was removed and adherent cells were detached with trypsin for 5 minutes. Cells were then harvested, washed with complete RPMI 1640, spun down, and resuspended in RPMI 1640 (containing 2% heat inactivated FBS, penicillin (100 units/ml) and streptomycin (100 μg/ml). The cells were plated in the 384-well assay plate containing the spotted compounds at a density of 50,000 cells/well (final assay volume 50 μl). Cells were incubated with compounds for 1 hour and then stimulated with gramicidin (5 μM) (Enzo) for 2 hours. Plates were then centrifuged at 340 g for 5 min. Cell free supernatant (40 μL) was collected using a 96-channel PlateMaster (Gilson) and the production of IL-1β was evaluated by HTRF (cisbio). The plates were incubated for 18 h at 4° C. and read using the preset HTRF program (donor emission at 620 nm, acceptor emission at 668 nm) of the SpectraMax i3x spectrophotometer (Molecular Devices, software SoftMax 6). A vehicle only control and a dose titration of CRID3 (100-0.0017 μM) were run concurrently with each experiment. […]

SMILES: CC(C)(O)c1ncc([S@](N)(=O)=NC(=O)Nc2c3c(cc4c2CCC4)CCC3)s1 [Compound IA, (R)-N′-((1,2,3,5,6,7-hexahydro-s-indacen-4-yl)carbamoyl)-2-(2-hydroxypropan-2-yl) thiazole-5-sulfonimidamide]
- IC50: 8 to 40 nM
